The assay addresses Recombinant human LSD1 (Homo sapiens, UniProt O60341). Briefly: LSD1 inhibition assay (HTRF LSD1 Histone H3K4 mono-demethylation assay, me1->me0). Type of assay: biochemical. The conditions noted are these: 20 nM recombinant human LSD1, 95 nM H3K4(me1) biotinylated peptide, 15 min preincubation, 60 min at 25° C., read-out: LSD1 inhibition IC50 (nM range). Summed up:
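Recombinant human LSD1 (20 nM) pre-incubated 15 min with 10 semi-log compound doses, then 95 nM biotinylated H3K4me1 peptide for 60 min at 25 °C in pH 8.5 Tris/NaCl buffer with 10 μM FAD, 1 mM DTT. HTRF me0-antibody read after 90 min; IC50 from 4-parameter fit.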
Background: Time-resolved FRET reads energy transfer from a long-lived donor to a nearby acceptor.

Each structure is given as a SMILES string. Where only a bound is given, the exact number is not on record here.

In general, IC50 refers to the point on the concentration scale where inhibition reaches its midpoint.

Turning to `N#Cc1ccc(-c2cccc(CN3CC4(CCNCC4)C3)c2Cl)cc1F` [Example 288, 2'-chloro-3'-({2,7-diazaspiro[3.5]nonan-2-yl}methyl)-3-fluoro-[1,1'-biphenyl]-4-carbonitrile], the IC50 fell in the range of 100 to 1000 nM.
With `CN1CCC12CCN(Cc1c(F)ccc(-c3ccc(C#N)c(F)c3)c1Cl)C2` (stereo not drawn) [Example 289, 2'-chloro-3,4'-difluoro-3'-({1-methyl-1,6-diazaspiro[3.4]octan-6-yl}methyl)-[1,1'-biphenyl]-4-carbonitrile] the figure was 100 to 1000 nM.
On to `CN1CCC12CCN(Cc1c(F)ccc(-c3ccc(C#N)c(F)c3)c1F)C2` (stereo not drawn) [Example 290, 2', 3,4'-trifluoro-3'-({1-methyl-1,6-diazaspiro[3.4]octan-6-yl}methyl)-[1,1'-biphenyl]-4-carbonitrile], for which the half-maximal inhibitory concentration (IC50) was more than 1000 nM.
`N#Cc1ccc(-c2ccc(F)c(CN3C[C@@H]4[C@H](N)[C@@H]4C3)c2Cl)cc1F` [Example 291, 3'-{[(1R,5S,6S)-6-amino-3-azabicyclo[3.1.0]hexan-3-yl]methyl}-2'-chloro-3,4'-difluoro-[1,1'-biphenyl]-4-carbonitrile]: the IC50 fell in the range of 100 to 1000 nM.
On to `N#Cc1ccc(-c2cccc(CN3CC4(CCN4)C3)c2Cl)cc1F` [Example 292, 2'-chloro-3'-({1,6-diazaspiro[3.3]heptan-6-yl}methyl)-3-fluoro-[1,1'-biphenyl]-4-carbonitrile], for which the IC50 was more than 1000 nM.
For `Cc1cc(CN2C[C@H]3C[C@@H]2CN3)c(C)c(-c2ccc(C#N)c(F)c2)c1` [Example 293, 3'-{[(1R,4R)-2,5-diazabicyclo[2.2.1]heptan-2-yl]methyl}-3-fluoro-2',5'-dimethyl-[1,1'-biphenyl]-4-carbonitrile], the half-inhibitory concentration (IC50) was in the range of 100 to 1000 nM.
With `N#Cc1ccc(-c2cc(CN3C[C@]4(N)CC[C@H]3C4)cc(N3CCCC3)c2)cc1F` [Example 294, 4-[3-[[(1S,4S)-4-amino-2-azabicyclo[2.2.1]heptan-2-yl]methyl]-5-pyrrolidin-1-yl-phenyl]-2-fluoro-benzonitrile] the figure was 100 to 1000 nM; with `CC(C)N(C)c1ccc(CN2CCN(C)CC2)cc1-c1ccc(C#N)c(F)c1` [Example 295, 3-fluoro-2'-[methyl(propan-2-yl)amino]-5'-[(4-methylpiperazin-1-yl)methyl]-[1,1'-biphenyl]-4-carbonitrile], more than 1000 nM; with `CN1CCN(Cc2ccc(N3CCC3)c(-c3ccc(C#N)c(F)c3)c2)CC1` [Example 296, 2'-(azetidin-1-yl)-3-fluoro-5'-[(4-methylpiperazin-1-yl)methyl]-[1,1'-biphenyl]-4-carbonitrile], more than 1000 nM.
With `Cc1cc(CN2C[C@@H]3C[C@H]2CN3C(C)C)c(Cl)c(-c2ccc(C#N)c(F)c2)c1` [Example 297, 2'-chloro-3-fluoro-5'-methyl-3'-{[(1S,4S)-5-(propan-2-yl)-2,5-diazabicyclo[2.2.1]heptan-2-yl]methyl}-[1,1'-biphenyl]-4-carbonitrile], the IC50 was in the range of 100 to 1000 nM.
For `Cc1cc(CNCC2(C)CCN(C)C2)c(Cl)c(-c2ccc(C#N)c(F)c2)c1` (stereo not drawn) [Example 298, 2'-chloro-3'-({[(1,3-dimethylpyrrolidin-3-yl)methyl]amino}methyl)-3-fluoro-5'-methyl-[1,1'-biphenyl]-4-carbonitrile], the half-inhibitory concentration (IC50) lay within 100 to 1000 nM.
For `Cc1cc(CN2C[C@@H]3C[C@H]2CN3)c(Cl)c(-c2ccc(C#N)c(F)c2)c1` [Example 299, 2′-chloro-3'-{[(1S,4S)-2,5-diazabicyclo[2.2.1]heptan-2-yl]methyl}-3-fluoro-5'-methyl-[1,1'-biphenyl]-4-carbonitrile], the IC50 fell in the range of 25 to 100 nM.
Turning to `C[C@]1(N)CCN(Cc2cccc(-c3ccc(C#N)c(F)c3)c2-c2ccns2)C1` [Example 302, 3'-{[(3S)-3-amino-3-methylpyrrolidin-1-yl]methyl}-3-fluoro-2'-(1,2-thiazol-5-yl)-[1,1'-biphenyl]-4-carbonitrile], the 50% inhibitory concentration (IC50) was less than 10 nM.
With `N#Cc1ccc(-c2cc(CN3C[C@]4(N)CC[C@H]3C4)ccc2C2CC2)cc1F` [Example 308, 5'-{[(1S,4S)-4-amino-2-azabicyclo[2.2.1]heptan-2-yl]methyl}-2'-cyclopropyl-3-fluoro-[1,1'-biphenyl]-4-carbonitrile] the figure was 25 to 100 nM; with `N#Cc1ccc(-c2cccc(CN3[C@@H]4CC[C@H]3C[C@H](N)C4)c2C2CC2)cc1F` [Example 321, 3'-{[(1R,3S,5S)-3-amino-8-azabicyclo[3.2.1]octan-8-yl]methyl}-2'-cyclopropyl-3-fluoro-[1,1'-biphenyl]-4-carbonitrile], 10 to 25 nM.
Regarding `N#Cc1ccc(-c2cccc(CN3C[C@H]4C[C@@H]3CCN4)c2C2CC2)cc1F` [Example 322, 2'-cyclopropyl-3'-{[(1R,5S)-2,6-diazabicyclo[3.2.1]octan-6-yl]methyl}-3-fluoro-[1,1'-biphenyl]-4-carbonitrile], the half-maximal inhibitory concentration (IC50) is 25 to 100 nM.
Consider `N#Cc1ccc(-c2cccc(CN3CC4CC(C3)N4)c2C2CC2)cc1F` [Example 323, 4-[2-cyclopropyl-3-(3,6-diazabicyclo[3.1.1]heptan-3-ylmethyl)phenyl]-2-fluoro-benzonitrile; (2R,3R)-2,3-dihydroxybutanedioic acid], for which the concentration for half-maximal inhibition (IC50) was in the range of 10 to 25 nM.
For the compound `N#Cc1ccc(-c2cccc(CN3C[C@@H]4CNC[C@H]4C3)c2-c2cncs2)cc1F` [Example 324, 3'-{[(3aS,6aS)-octahydropyrrolo[3,4-c]pyrrol-2-yl]methyl}-3-fluoro-2'-(1,3-thiazol-5-yl)-[1,1'-biphenyl]-4-carbonitrile], the concentration for half-maximal inhibition (IC50) lay in the range of 10 to 25 nM.
Turning to `N#Cc1ccc(-c2cccc(CN3CCC4(CCNC4)C3)c2-c2cnco2)cc1` (stereo not drawn) [Example 325, 3'-({2,7-diazaspiro[4.4]nonan-2-yl}methyl)-2'-(1,3-oxazol-5-yl)-[1,1'-biphenyl]-4-carbonitrile], the IC50 was in the range of 10 to 25 nM.
Regarding `N#Cc1ccc(-c2cccc(CN3C[C@H](N)C[C@H](C(F)(F)F)C3)c2Cl)cc1F` [Example 326, 3'-{[(3R,5S)-3-amino-5-(trifluoromethyl)piperidin-1-yl]methyl}-2'-chloro-3-fluoro-[1,1'-biphenyl]-4-carbonitrile], the IC50 was more than 1000 nM.
On to `N#Cc1ccc(-c2cccc(CN3CCCC34CCCNC4)c2Cl)cc1F` (stereo not drawn) [Example 327, 2'-chloro-3'-({1,7-diazaspiro[4.5]decan-1-yl}methyl)-3-fluoro-[1,1'-biphenyl]-4-carbonitrile], for which the half-maximal inhibitory concentration (IC50) was more than 1000 nM.
On to `N#Cc1ccc(-c2cccc(CN3CC4(N)CCC3CC4)c2Cl)cc1F` [Example 328, 3'-({4-amino-2-azabicyclo[2.2.2]octan-2-yl}methyl)-2'-chloro-3-fluoro-[1,1'-biphenyl]-4-carbonitrile], for which the IC50 lay within 100 to 1000 nM.
With `C[C@@H]1[C@@H](N)CCCN1Cc1cccc(-c2ccc(C#N)c(F)c2)c1Cl` [Example 329, 3'-{[(2R,3S)-3-amino-2-methylpiperidin-1-yl]methyl}-2'-chloro-3-fluoro-[1,1'-biphenyl]-4-carbonitrile], the IC50 was more than 1000 nM.
With `C[C@@H]1CC[C@H](N)CN1Cc1cccc(-c2ccc(C#N)c(F)c2)c1Cl` [Example 330, 3'-{[(2R,5S)-5-amino-2-methylpiperidin-1-yl]methyl}-2'-chloro-3-fluoro-[1,1'-biphenyl]-4-carbonitrile] the figure was more than 1000 nM.
With `N#Cc1ccc(-c2cccc(CN3CCCC(N)C3)c2Cl)cc1F` (stereo not drawn) [Example 332, 3'-[(3-aminopiperidin-1-yl)methyl]-2'-chloro-3-fluoro-[1,1'-biphenyl]-4-carbonitrile] the figure was 100 to 1000 nM.
Take `N#Cc1ccc(-c2cccc(CN3CC4(CCCNC4)C3)c2-c2cnco2)cc1F` [Example 333, 3'-({2,6-diazaspiro[3.5]nonan-2-yl}methyl)-3-fluoro-2'-(1,3-oxazol-5-yl)-[1,1'-biphenyl]-4-carbonitrile]: the concentration for half-maximal inhibition (IC50) was 10 to 25 nM.
As to `N#Cc1ccc(-c2ccc(F)c(CN3C[C@]4(N)CC[C@H]3C4)c2-c2cnco2)cc1F` [Example 334, 3'-{[(1S,4S)-4-amino-2-azabicyclo[2.2.1]heptan-2-yl]methyl}-3,4'-difluoro-2'-(1,3-oxazol-5-yl)-[1,1'-biphenyl]-4-carbonitrile], the 50% inhibitory concentration (IC50) lay in the range of 10 to 25 nM.
Consider `N#Cc1ccc(-c2cccc(CN3C[C@]4(N)CC[C@H]3C4)c2-c2cnco2)cc1F` [Example 335, 3'-{[(1S,4S)-4-amino-2-azabicyclo[2.2.1]heptan-2-yl]methyl}-3-fluoro-2'-(1,3-oxazol-5-yl)-[1,1'-biphenyl]-4-carbonitrile], for which the half-inhibitory concentration (IC50) was less than 10 nM.
In the case of `CNC1CCN(Cc2cccc(-c3ccc(C#N)c(F)c3)c2-c2cnco2)C1` (stereo not drawn) [Example 336, 3-fluoro-3'-{[3-(methylamino)pyrrolidin-1-yl]methyl}-2'-(1,3-oxazol-5-yl)-[1,1'-biphenyl]-4-carbonitrile], the half-maximal inhibitory concentration (IC50) was in the range of 10 to 25 nM.
On to `N#Cc1ccc(-c2cccc(CN3CC(F)(F)[C@@]34CCNC4)c2Cl)cc1F` [Example 337, 2'-chloro-3'-{[(4S)-3,3-difluoro-1,6-diazaspiro[3.4]octan-1-yl]methyl}-3-fluoro-[1,1'-biphenyl]-4-carbonitrile], for which the IC50 was more than 1000 nM.
For the compound `N#Cc1ccc(-c2cccc(CN3CCNCC(F)(F)C3)c2Cl)cc1F` [Example 338, 2'-chloro-3'-[(6,6-difluoro-1,4-diazepan-1-yl)methyl]-3-fluoro-[1,1'-biphenyl]-4-carbonitrile], the 50% inhibitory concentration (IC50) was more than 1000 nM.
On to `N#Cc1ccc(-c2cccc(CN3CCC4(CC3)CNC4)c2Cl)cc1F` [Example 339, 2'-chloro-3'-({2,7-diazaspiro[3.5]nonan-7-yl}methyl)-3-fluoro-[1,1'-biphenyl]-4-carbonitrile], for which the IC50 lay within 25 to 100 nM.
Regarding `N#Cc1ccc(-c2cccc(CN3CCC4(CNC4)C3)c2Cl)cc1F` [Example 341, 2'-chloro-3'-({2,6-diazaspiro[3.4]octan-6-yl}methyl)-3-fluoro-[1,1'-biphenyl]-4-carbonitrile], the IC50 lay within 100 to 1000 nM.
